Target: T1, AcrIII-1 (SIRV1 gp29) (Sulfolobus islandicus rod-shaped virus 1, UniProt Q8QL27, H47A)
T1 construct: gene 114
Assay: biochemical

T1 sequence (Q8QL27 whole entry H47A): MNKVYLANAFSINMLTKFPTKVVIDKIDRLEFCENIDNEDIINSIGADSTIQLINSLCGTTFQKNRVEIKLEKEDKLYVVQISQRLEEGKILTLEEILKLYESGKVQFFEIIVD

Nc1ncnc2c1ncn2[C@@H]1O[C@@H]2COP(=O)(O)O[C@H]3[C@@H](O)[C@H](n4cnc5c(N)ncnc54)O[C@@H]3COP(=O)(O)O[C@H]3[C@@H](O)[C@H](n4cnc5c(N)ncnc54)O[C@@H]3COP(=O)(O)O[C@H]3[C@@H](O)[C@H](n4cnc5c(N)ncnc54)O[C@@H]3COP(=O)(O)O[C@H]2[C@H]1O [cA4, cyclic tetra-adenylate]
Kd: ~25 nM
